Source: US11230543B2, “Biaryl monobactam compounds and methods of use thereof for the treatment of bacterial infections” (priority 2015, dated 2022)
Counter-ions that a name gives are not always drawn.

Tests used:
[1] = tested on: Klebsiella pneumoniae expressing KPC-1 (CL6569); assay: Antibiotic activity: growth inhibitory concentration (OD600), Klebsiella pneumoniae CL6569; format: cell-based; conditions: lowest concentration inhibiting 95% of bacterial growth; in the presence of β lactamase inhibitor Relebactam 4 μg/mL; 35±2° C. for 22 hours; tested range 100 μM to 0.098 μM
Experimental: (§1) Antibiotic Activity: Determination of Growth Inhibitory Concentration
(§2) The concentrations of compounds required to inhibit the growth of various strains of bacteria were determined in an assay that assessed bacterial growth by measuring optical density at 600 nm (OD600). The bacterial strains tested included the clinical strains Escherichia coli expressing NDM-1 (CLB30016), Klebsiella pneumoniae expressing KPC-1 (CL6569), Acinetobacter baumannii expressing TEM-1, AmpC, and Oxa-24/40 (CL6188) and Pseudomonas aeruginosa expressing AmpC (CL5701). All compounds were tested in the presence of a β lactamase inhibitor (BLi, Relebactam) in 384-well microplates. The clinical strains were stored as frozen single use stocks, thawed and diluted into 1.1× cation-adjusted Mueller-Hinton II broth to achieve approximately 2×10^5 CFU/mL. Test compounds were dissolved in DMSO and diluted 1:50 in the assay, resulting in a final concentration range of 100 μM to 0.098 μM. On the day of the assay, 1 μL of test compound was added to the plate followed by 4 μL of 50 μg/mL BLi in MOPS buffer and 45 μL of diluted bacteria. Plates were centrifuged at 1000 rpm for 30 seconds, shaken at approximately 800 rpm for 1 minute, and incubated at 35±2° C. for 22 hours. The concentration of BLi used in the assay was 4 μg/mL. At the end of the incubation, absorbance at 600 nm was determined using a spectrophotometer. Inhibition was quantitated by identifying the lowest concentration of test compound that was required to inhibit 95% of the growth of the bacteria. The results for Examples 1-126 are reported in Table I, expressed as the concentration of compound that inhibited 95% of bacterial growth (Minimum Inhibitory Threshold Concentration; MITC95).

[2] = tested on: Pseudomonas aeruginosa expressing AmpC (CL5701); assay: Antibiotic activity: growth inhibitory concentration (OD600), Pseudomonas aeruginosa CL5701; format: cell-based; conditions: lowest concentration inhibiting 95% of bacterial growth; in the presence of β lactamase inhibitor Relebactam 4 μg/mL; 35±2° C. for 22 hours; tested range 100 μM to 0.098 μM
Experimental: as §1, §2

SMILES | KP_CL6569 MITC95 [1] [µM] | PA_CL5701 MITC95 [2] [µM]
C[C@@H]1[C@H](NC(=O)/C(=N\O[C@@](C)(COc2ccc(-c3cn(CCCN)[n+](C)c3)cc2)C(=O)O)c2csc(N)n2)C(=O)N1S(=O)(=O)O.O=C([O-])C(F)(F)F [Example 25, 1-(3-aminopropyl)-4-(4-((S)-2-((((Z)-1-(2-aminothiazol-4-yl)-2-(((2R,3S)-2-methyl-4-oxo-1-sulfoazetidin-3-yl)amino)-2-oxoethylidene)amino)oxy)-2-carboxypropoxy)phenyl)-2-methyl-1H-pyrazol-2-ium 2,2,2-trifluoroacetate] | 0.3906 | 3.125
C[n+]1cc(OC[C@H](O/N=C(\C(=O)N[C@@H]2C(=O)N(OS(=O)(=O)O)C2(C)C)c2csc(N)n2)C(=O)O)ccc1-c1cnn(CCCN)c1.O=C([O-])C(F)(F)F [Example 26, 2-(1-(3-aminopropyl)-1H-pyrazol-4-yl)-5-((S)-2-((((Z)-1-(2-aminothiazol-4-yl)-2-(((S)-2,2-dimethyl-4-oxo-1-(sulfooxy)azetidin-3-yl)amino)-2-oxo-ethylidene)amino)oxy)-2-carboxyethoxy)-1-methylpyridin-1-ium 2,2,2-trifluoroacetate] | 1.563 | 50
CC1(C)[C@H](NC(=O)/C(=N\O[C@@H](COc2ccc(-c3cn(CCCN)nc3N)cc2)C(=O)O)c2csc(N)n2)C(=O)N1OS(=O)(=O)O [Example 27, (S)-3-(4-(3-amino-1-(3-aminopropyl)-1H-pyrazol-4-yl)phenoxy)-2-((((Z)-1-(2-aminothiazol-4-yl)-2-(((S)-2,2-dimethyl-4-oxo-1-(sulfooxy)azetidin-3-yl)amino)-2-oxoethylidene)amino)oxy)propanoic acid] | 0.7813 | 6.25
C[n+]1c(N)c(-c2ccc(OC[C@H](O/N=C(\C(=O)N[C@@H]3C(=O)N(OS(=O)(=O)[O-])C3(C)C)c3csc(N)n3)C(=O)O)cc2)cn1CCCN [Example 28, (S)-3-((Z)-2-(((S)-2-(4-(3-Amino-1-(3-aminopropyl)-2-methyl-1H-pyrazol-2-ium-4-yl)phenoxy)-1-carboxyethoxy)imino)-2-(2-aminothiazol-4-yl)acetamido)-2,2-dimethyl-4-oxoazetidin-1-yl sulfate] | 0.2 | 3.13
C[C@H]1[C@H](NC(=O)/C(=N\O[C@@H](COc2ccc(-c3cn(CCCN)[n+](C)c3)cc2)c2nn[nH]n2)c2csc(N)n2)C(=O)N1S(=O)(=O)O.O=C([O-])C(F)(F)F [Example 30, 1-(3-aminopropyl)-4-(4-((R)-2-((((Z)-1-(2-aminothiazol-4-yl)-2-(((2S,3S)-2-methyl-4-oxo-1-sulfoazetidin-3-yl)amino)-2-oxoethylidene)amino)oxy)-2-(2H-tetrazol-5-yl)ethoxy)phenyl)-2-methyl-1H-pyrazol-2-ium 2,2,2-trifluoroacetate] | 3.125 | 6.25
CC1(C)[C@H](NC(=O)/C(=N\O[C@@H](COc2ccc(-c3cn(CCCN)c(N)n3)cc2)C(=O)O)c2csc(N)n2)C(=O)N1OS(=O)(=O)O.O=C(O)C(F)(F)F [Example 31, 3-(2-amino-4-(4-((S)-2-((((Z)-1-(2-aminothiazol-4-yl)-2-(((S)-2,2-dimethyl-4-oxo-1-(sulfooxy)azetidin-3-yl)amino)-2-oxoethylidene)amino)oxy)-2-carboxyethoxy)phenyl)-1H-imidazol-1-yl)propan-1-aminium 2,2,2-trifluoroacetate] | 0.3906 | 3.125
Cn1c(-c2ccc(OC[C@H](O/N=C(\C(=O)N[C@@H]3C(=O)N(OS(=O)(=O)O)C3(C)C)c3csc(N)n3)C(=O)O)cc2)cn(CCCN)c1=N.O=C(O)C(F)(F)F [Example 32, 3-(4-(4-((S)-2-((((Z)-1-(2-aminothiazol-4-yl)-2-(((S)-2,2-dimethyl-4-oxo-1-(sulfooxy)-azetidin-3-yl)amino)-2-oxoethylidene)amino)oxy)-2-carboxyethoxy)phenyl)-2-imino-3-methyl-2,3-dihydro-1H-imidazol-1-yl)propan-1-aminium 2,2,2-trifluoroacetate] | 0.1953 | 3.125
CC1(C)[C@H](NC(=O)/C(=N\O[C@@H](COc2ccc(Nc3cc[n+](CCCN)cc3)nc2)C(=O)O)c2csc(N)n2)C(=O)N1OS(=O)(=O)O [Example 33, 1-(3-aminopropyl)-4-((5-((S)-2-((((Z)-1-(2-aminothiazol-4-yl)-2-(((S)-2,2-dimethyl-4-oxo-1-(sulfooxy)azetidin-3-yl)amino)-2-oxoethylidene)amino)oxy)-2-carboxyethoxy)pyridin-2-yl)amino)pyridin-1-ium 2,2,2-trifluoroacetate] | 0.3906 | 6.25
CC1(C)[C@H](NC(=O)/C(=N\O[C@@H](COc2ccc(Oc3cc[n+](CCCN)cc3)nc2)C(=O)O)c2csc(N)n2)C(=O)N1OS(=O)(=O)O.O=C([O-])C(F)(F)F [Example 34, 1-(3-aminopropyl)-4-((5-((S)-2-((((Z)-1-(2-aminothiazol-4-yl)-2-(((S)-2,2-dimethyl-4-oxo-1-(sulfooxy)azetidin-3-yl)amino)-2-oxoethylidene)amino)oxy)-2-carboxyethoxy)pyridin-2-yl)oxy)pyridin-1-ium 2,2,2-trifluoroacetate] | 0.78 | 25
CC1(C)[C@H](NC(=O)/C(=N\OCCOc2ccc(-n3cc[n+](CCCN)c3)nc2)c2csc(N)n2)C(=O)N1OS(=O)(=O)[O-] [Example 35, (S,Z)-3-(2-((2-((6-(3-(3-aminopropyl)-1H-imidazol-3-ium-1-yl)pyridin-3-yl)oxy)ethoxy)imino)-2-(2-aminothiazol-4-yl)acetamido)-2,2-dimethyl-4-oxoazetidin-1-yl sulfate 2,2,2-trifluoroacetate] | 1.281 | 50
CC1(C)[C@H](NC(=O)/C(=N\O[C@@H](COc2ccc(-n3cc[n+](CCCN)c3)nc2)C(=O)O)c2csc(N)n2)C(=O)N1OS(=O)(=O)[O-] [Example 36, (S)-3-((Z)-2-(((S)-2-((6-(3-(3-aminopropyl)-1H-imidazol-3-ium-1-yl)pyridin-3-yl)oxy)-1-carboxyethoxy)imino)-2-(2-aminothiazol-4-yl)acetamido)-2,2-dimethyl-4-oxoazetidin-1-yl sulfate compound with 2,2,2-trifluoroacetic acid (1:1)] | 0.7813 | 6.25
CC1(C)[C@H](NC(=O)/C(=N\O[C@@H](COc2ccc(Nc3nccn3CCCN)nc2)C(=O)O)c2csc(N)n2)C(=O)N1OS(=O)(=O)O [Example 37A, 3-(2-((5-((S)-2-((((Z)-1-(2-aminothiazol-4-yl)-2-(((S)-2,2-dimethyl-4-oxo-1-(sulfooxy)azetidin-3-yl)amino)-2-oxoethylidene)amino)oxy)-2-carboxyethoxy)pyridin-2-yl)amino)-1H-imidazol-1-yl)propan-1-aminium 2,2,2-trifluoroacetate] | 0.78 | 3.13
CC1(C)[C@H](NC(=O)/C(=N\O[C@H](COc2ccc(Nc3nccn3CCCN)nc2)C(=O)O)c2csc(N)n2)C(=O)N1OS(=O)(=O)O [Example 37B, 3-(2-((5-((R)-2-((((Z)-1-(2-aminothiazol-4-yl)-2-(((S)-2,2-dimethyl-4-oxo-1-(sulfooxy)azetidin-3-yl)amino)-2-oxoethylidene)amino)oxy)-2-carboxyethoxy)pyridin-2-yl)amino)-1H-imidazol-1-yl)propan-1-aminium 2,2,2-trifluoroacetate] | 6.25 | 25
C[n+]1cc(-c2ccc(OC[C@H](O/N=C(\C(=O)N[C@@H]3C(=O)N(OS(=O)(=O)[O-])C3(C)C)c3csc(N)n3)C(=O)O)cc2Cl)cn1CCCN [Example 38, (S)-3-((Z)-2-(((S)-2-(4-(1-(3-aminopropyl)-2-methyl-1H-pyrazol-2-ium-4-yl)-3-chlorophenoxy)-1-carboxyethoxy)imino)-2-(2-aminothiazol-4-yl)acetamido)-2,2-dimethyl-4-oxoazetidin-1-yl sulfate] | 0.3906 | 6.25
C[n+]1cc(-c2ccc(OC[C@](C)(O/N=C(\C(=O)N[C@@H]3C(=O)N(OS(=O)(=O)O)C3(C)C)c3csc(N)n3)C(=O)O)cc2)cn1CCCN [Example 39, (S)-3-((Z)-2-((((S)-1-(4-(1-(3-aminopropyl)-2-methyl-1H-pyrazol-2-ium-4-yl)phenoxy)-2-carboxypropan-2-yl)oxy)imino)-2-(2-aminothiazol-4-yl)acetamido)-2,2-dimethyl-4-oxoazetidin-1-yl sulfate] | 0.3255 | 3.125
